This note sets out measurements from patent US6462016B1 (Shiseido Company, Ltd., priority 1995, dated 2002).

The target in assay [1] is T1, maxadilan receptor in crude membrane fraction from the brain of a human being (Homo sapiens, UniProt P41586).
T1 construct: Likewise, crude membrane fractions were prepared; from tissue; host or cells: human brain, crude membrane fraction
T1 sequence (P41586 21-468): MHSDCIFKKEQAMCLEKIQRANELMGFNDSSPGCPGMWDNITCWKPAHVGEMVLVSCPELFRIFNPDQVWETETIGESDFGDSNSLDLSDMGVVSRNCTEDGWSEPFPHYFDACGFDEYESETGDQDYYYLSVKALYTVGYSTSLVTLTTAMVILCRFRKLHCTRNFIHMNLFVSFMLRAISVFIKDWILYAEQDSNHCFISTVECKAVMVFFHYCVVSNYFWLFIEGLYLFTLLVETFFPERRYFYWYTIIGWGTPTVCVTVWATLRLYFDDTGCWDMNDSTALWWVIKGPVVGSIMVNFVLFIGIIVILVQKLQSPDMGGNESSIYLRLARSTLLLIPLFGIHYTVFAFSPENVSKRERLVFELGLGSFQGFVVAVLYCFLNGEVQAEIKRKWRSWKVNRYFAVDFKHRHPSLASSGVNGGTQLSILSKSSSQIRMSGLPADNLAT
Kind of assay: Binding test (tissue): 125I-Max, human brain crude membrane fraction. The procedure:
(§1) Likewise, crude membrane fractions were prepared, respectively, from the brain, liver, pancreas, spleen, aorta and kidney of a rabbit, and the brains of a rat, a mouse, cattle and a human being.
(§2) After completion of the reaction, ^125I-Max bound to the membrane was separated by subjecting the resultant incubation matter to suction filtration using a GF/C glass filter (Whatman GF/C), and the radioactivity of the glass filter after being dried was measured by a γ-counter.

Assay [2] addresses maxadilan receptor in crude membrane fraction from the rabbit spleen. Kind of assay: Binding test (tissue): 125I-Max, rabbit spleen crude membrane fraction. Conditions: read-out: dissociation constant (Kd). As to the method: as §1, §2
The subject of assay [3] is rat adrenal medulla melanocytoma PC-12. In kind it is cell-based.
The target of assay [4] is T2, maxadilan receptor in crude membrane fraction from the cattle brain (Bos taurus, UniProt Q29627).
T2 construct: Likewise, crude membrane fractions were prepared; from tissue; host or cells: cattle brain, crude membrane fraction
T2 sequence (Q29627 38-513): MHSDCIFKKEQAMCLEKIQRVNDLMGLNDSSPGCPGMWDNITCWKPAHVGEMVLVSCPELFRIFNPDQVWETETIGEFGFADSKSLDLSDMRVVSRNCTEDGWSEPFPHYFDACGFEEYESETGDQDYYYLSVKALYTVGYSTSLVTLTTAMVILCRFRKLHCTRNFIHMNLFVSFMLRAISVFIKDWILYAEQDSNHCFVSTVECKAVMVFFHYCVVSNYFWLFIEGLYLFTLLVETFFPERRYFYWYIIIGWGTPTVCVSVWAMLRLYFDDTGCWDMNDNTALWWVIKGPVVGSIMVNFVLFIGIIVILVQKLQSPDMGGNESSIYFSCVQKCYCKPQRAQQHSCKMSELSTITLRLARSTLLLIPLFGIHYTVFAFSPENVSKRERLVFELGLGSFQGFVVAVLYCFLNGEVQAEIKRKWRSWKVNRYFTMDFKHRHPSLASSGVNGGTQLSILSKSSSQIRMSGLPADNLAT
Kind of assay: Binding test (tissue): 125I-Max, cattle brain crude membrane fraction. As to the method: as §1, §2

The test system of assay [5] is NBf1 cell. The assay is described as follows: cAMP production in NBf1 cell. It is filed as cell-based, human. Background: Changes in cAMP serve as a functional read-out for many G protein-coupled receptors.
Assay [6] deals with rat pancreas smooth muscle MILE cell. Kind of assay: cAMP production in MILE cell. In kind it is cell-based.
Assay [7] has as its target T3, maxadilan receptor in crude membrane fraction from the rat brain (Rattus norvegicus, UniProt P32215).
T3 construct: Likewise, crude membrane fractions were prepared; from tissue; host or cells: rat brain, crude membrane fraction
T3 sequence (P32215 20-523): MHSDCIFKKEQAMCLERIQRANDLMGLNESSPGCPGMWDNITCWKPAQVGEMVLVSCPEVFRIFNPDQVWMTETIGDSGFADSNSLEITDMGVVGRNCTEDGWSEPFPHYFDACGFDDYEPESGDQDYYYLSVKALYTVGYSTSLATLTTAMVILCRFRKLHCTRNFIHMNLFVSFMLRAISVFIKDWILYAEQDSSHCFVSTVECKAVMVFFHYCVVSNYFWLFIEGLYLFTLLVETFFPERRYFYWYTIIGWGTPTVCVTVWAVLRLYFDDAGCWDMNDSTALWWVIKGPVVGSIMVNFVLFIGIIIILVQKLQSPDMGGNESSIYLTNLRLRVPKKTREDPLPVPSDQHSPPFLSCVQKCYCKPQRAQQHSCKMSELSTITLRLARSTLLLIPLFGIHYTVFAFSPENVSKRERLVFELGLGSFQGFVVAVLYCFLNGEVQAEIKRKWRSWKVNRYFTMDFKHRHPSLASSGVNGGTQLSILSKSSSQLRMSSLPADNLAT
The assay is described as follows: Binding test (tissue): 125I-Max, rat brain crude membrane fraction. The procedure:
as §1, §2

For assay [8], the system named is rabbit skin. It is filed as in vivo.
For assay [9], the target named is T4, maxadilan receptor in crude membrane fraction from the mouse brain (Mus musculus, UniProt P70205).
T4 construct: Likewise, crude membrane fractions were prepared; from tissue; host or cells: mouse brain, crude membrane fraction
T4 sequence (P70205 21-496): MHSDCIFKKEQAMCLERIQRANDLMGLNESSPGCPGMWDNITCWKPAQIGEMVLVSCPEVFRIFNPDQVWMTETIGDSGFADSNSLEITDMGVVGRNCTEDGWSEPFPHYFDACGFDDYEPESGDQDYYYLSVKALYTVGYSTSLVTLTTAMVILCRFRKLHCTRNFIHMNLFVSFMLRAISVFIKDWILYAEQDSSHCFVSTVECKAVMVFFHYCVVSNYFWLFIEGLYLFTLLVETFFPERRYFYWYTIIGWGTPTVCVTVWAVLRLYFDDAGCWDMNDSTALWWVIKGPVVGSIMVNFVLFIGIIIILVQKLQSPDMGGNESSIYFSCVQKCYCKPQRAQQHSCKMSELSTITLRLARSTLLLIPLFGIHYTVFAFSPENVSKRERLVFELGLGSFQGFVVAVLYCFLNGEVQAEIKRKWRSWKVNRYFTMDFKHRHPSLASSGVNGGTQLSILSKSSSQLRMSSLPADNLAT
The assay is described as follows: Binding test (tissue): 125I-Max, mouse brain crude membrane fraction. As to the method:
as §1, §2

What is called Kd is a measure of binding affinity in units of concentration. Turning to maxadilan, the “specific binding to crude membrane fraction” value in assay [1] and in [4] was “specific binding of Max is also recognized” throughout. Moreover, in assay [2], the equilibrium dissociation constant (Kd) amounted to 55 pM. Moreover, the cAMP production entry in assay [3] (PC-12 cell (1×10^6), 37° C. 10 minutes) was “significantly promotes cAMP production”; in assay [5], “likewise observed”; in assay [6], “likewise observed”. Besides, the “time course of cAMP production after stimulation” value in assay [3] (PC-12 cell, 100 nM maxadilan, 37° C., various time) is “conducted in an instant”. In addition, the “maximum binding amount (Bmax)” value in assay [4] was 17 fmol/mg; in assay [7], 68 fmol/mg; in assay [9], 53 fmol/mg. Moreover, in assay [8] (50 μl dilutions at various concentrations intracutaneously into white rabbits, observed 30 minutes and 2 hours after injection), the Erythema formation activity was 10^−12. In assay [8] (intracutaneous injection, rabbit), the “erythema formation action (in words)” value was “superior to that of natural maxadilan”.
